From patent publication US7947684B2, “1-aroyl-piperidinyl benzamidines” (Aventis Pharmaceuticals Inc., priority 2000, dated 2011)
Counter-ions that a name gives are not always drawn.

Legend:
Factor Xa = Factor Xa (Homo sapiens, UniProt P00742); assay: Enzyme assay, purified factor Xa, peptide-p-nitroanilide substrate; assay type: biochemical; conditions: apparent Ki from IC50 by Cheng-Prusoff, room temperature, 1 nM enzyme
Procedure: (§1) All enzyme assays are carried out at room temperature in 96-well microtiter plates using a final enzyme concentration of 1 nM. The concentrations of factor Xa and thrombin are determined by active site titration and the concentrations of all other enzymes are based on the protein concentration supplied by the manufacturer. Compounds according to the invention are dissolved in DMSO, diluted with their respective buffers and assayed at a maximal final DMSO concentration of 1.25%. Compound dilutions are added to wells containing buffer and enzyme and pre-equilibrated for between 5 and 30 minutes. The enzyme reactions are initiated by the addition of substrate and the color developed from the hydrolysis of the peptide-p-nitroanilide substrates is monitored continuously for 5 minutes at 405 nm on a Vmax microplate reader (Molecular Devices). Under these conditions, less than 10% of the substrate is utilized in all assays. […] The apparent Ki values are then determined according to the Cheng-Prusoff equation (IC50=Ki[1+[S]/Km]) assuming competitive inhibition kinetics.

[1] = target: human lung tryptase or recombinant human β tryptase; assay: Tryptase inhibition activity, S2366 substrate; assay type: biochemical; conditions: room temperature, 0.5 mM substrate
Procedure: as §1
Tryptase inhibition activity is confirmed using either isolated human lung tryptase or recombinant human β tryptase expressed in yeast cells. Essentially equivalent results are obtained using isolated native enzyme or the expressed enzyme. […]

Sequence of Factor Xa (P00742 235-488 limits assumed): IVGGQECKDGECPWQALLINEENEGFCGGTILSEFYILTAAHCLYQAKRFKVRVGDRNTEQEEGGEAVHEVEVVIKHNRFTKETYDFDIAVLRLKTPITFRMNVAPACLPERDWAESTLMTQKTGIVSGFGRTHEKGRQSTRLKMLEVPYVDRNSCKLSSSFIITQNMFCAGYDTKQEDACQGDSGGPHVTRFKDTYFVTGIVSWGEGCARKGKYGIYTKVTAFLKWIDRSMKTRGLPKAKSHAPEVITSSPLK
Sequence of Factor Xa (P00742 41-179 partner limits assumed): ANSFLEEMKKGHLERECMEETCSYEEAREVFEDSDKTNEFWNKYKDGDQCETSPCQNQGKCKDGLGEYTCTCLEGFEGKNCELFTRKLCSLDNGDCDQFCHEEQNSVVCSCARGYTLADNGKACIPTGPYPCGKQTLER

Structure (SMILES) | Ki (Factor Xa) | Ki [1]
N=C(N)c1cccc(C2=CCN(C(=O)c3ccc(-c4ccc(Cl)s4)cc3)CC2)c1 [Example 11, 3-{1-[4-(5-Chlorothiophen-2-yl)-benzoyl]-1,2,3,6-tetrahydropyridin-4-yl}benzamidine trifluoroacetate] | 688 nM | –
NC(=O)c1cccc(-c2ccc(C(=O)N3CCC(c4ccc5ccnc(N)c5c4)CC3)cc2)c1 [Example 35, 4′-[4-(1-Aminoisoquinolin-7-yl)piperidine-1-carbonyl]biphenyl-3-carboxylic acid amide trifluoroacetate] | 570 nM | –
Nc1nccc2ccc(C3=CCN(C(=O)c4ccc(-c5ccc(=O)[nH]c5)cc4)CC3)cc12 [Example 39, 5-{4-[4-(1-Aminoisoquinolin-7-yl)-3,6-dihydro-2H-pyridine-1-carbonyl]phenyl}-1H-pyridin-2-one trifluoroacetate] | 140 nM | –
Nc1nccc2[nH]c(C3CCN(C(=O)c4ccc(-c5ccc(=O)[nH]c5)cc4)CC3)cc12 [Example 44, 5-{4-[4-(4-Amino-1H-pyrrolo[3,2-c]pyridin-2-yl)piperidine-1-carbonyl]phenyl}-1H-pyridin-2-one trifluoroacetate] | 990 nM | –
N=C(N)c1cccc(C2=CCN(C(=O)c3cncc(C#Cc4ccccc4)c3)CC2)c1 [Example 47, 3-[1-(5-Phenylethynyl-pyridine-3-carbonyl)-1,2,3,6-tetrahydropyridin-4-yl]-benzamidine hydrochloride] | – | 183 nM
N=C(N)c1cccc(N2CCN(C(=O)c3cncc(CCc4ccccc4)c3)CC2)c1 [Example 49, 3-[4-(5-Phenylethyl-pyridine-3-carbonyl)-piperazin-1-yl]-benzamidine di-hydrochloride] | – | 1070 nM

The next lines start with the values.

Ki (Factor Xa) | Ki [1] | Structure (SMILES)
5 nM | – | N=C(N)c1cccc(C2=CCN(C(=O)c3ccc(-c4cccnc4)cc3)CC2)c1 [Example 8, 3-[1-(4-Pyridin-3-yl-benzoyl)-1,2,3,6-tetrahydropyridin-4-yl]benzamidine ditrifluoroacetate]
34 nM | – | N=C(N)c1cccc(C2=CCN(C(=O)c3ccc(-c4ccc(Br)o4)cc3)CC2)c1 [Example 10, 3-{1-[4-(5-Bromofuran-2-yl)-benzoyl]-1,2,3,6-tetrahydropyridin-4-yl}benzamidine trifluoroacetate]
63 nM | – | N=C(N)c1cccc(C2=CCN(C(=O)c3ccc(-c4ncccn4)cc3)CC2)c1 [Example 16, 3-[1-(4-Pyrimidin-2-ylbenzoyl)-1,2,3,6-tetrahydropyridin-4-yl]-benzamidine ditrifluoroacetate]
9 nM | – | N=C(N)c1cccc(C2CCN(C(=O)c3ccc(-c4ccccn4)cc3)CC2)c1 [Example 25, 3-[1-(4-Pyridin-2-ylbenzoyl)-piperidin-4-yl]benzamidine ditrifluoroacetate]
